31 compounds from US7932262B2 (Novartis AG, priority 2006, dated 2011) can be followed below.

Like-named read-outs stand apart in the source and are kept apart here.

The target of test [1] is T1, PDK1 kinase (Homo sapiens, UniProt O15530).
T1 sequence (O15530 1-556): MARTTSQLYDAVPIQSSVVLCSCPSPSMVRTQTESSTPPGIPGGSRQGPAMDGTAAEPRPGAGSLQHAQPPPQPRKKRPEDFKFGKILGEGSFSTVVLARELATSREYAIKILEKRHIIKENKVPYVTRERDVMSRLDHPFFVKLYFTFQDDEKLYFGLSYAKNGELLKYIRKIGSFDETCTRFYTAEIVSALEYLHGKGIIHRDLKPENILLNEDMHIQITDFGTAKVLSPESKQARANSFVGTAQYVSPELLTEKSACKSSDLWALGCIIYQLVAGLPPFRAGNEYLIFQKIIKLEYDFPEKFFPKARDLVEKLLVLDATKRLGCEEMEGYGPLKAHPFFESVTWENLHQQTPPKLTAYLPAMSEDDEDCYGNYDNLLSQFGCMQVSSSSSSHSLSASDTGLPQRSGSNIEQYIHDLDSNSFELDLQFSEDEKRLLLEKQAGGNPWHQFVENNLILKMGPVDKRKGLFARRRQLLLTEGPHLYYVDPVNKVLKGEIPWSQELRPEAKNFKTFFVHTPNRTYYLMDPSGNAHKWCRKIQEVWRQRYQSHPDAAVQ
Kind of test: PDK1 Kinase Alpha Screen Assay. The format is biochemical. Conditions: PDK1 Kinase Alpha Screen Assay; read-out: PDK1 IC50. An outline of the steps: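 Test compounds were incubated with PDK1 kinase, 10 uM ATP and 50 nM biotinylated peptide substrate for 3-18 hours at pH 7.5 with 2.5% DMSO. Peptide phosphorylation was then detected by AlphaScreen proximity luminescence using a phospho-(Ser/Thr) PKA substrate antibody.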

Test [2] has as its system PC-3 cells. Kind of test: Cell Proliferation Assay (Cell Titer Glo), PC-3 cell line. The class given is cell-based. Conditions: PC3, read-out: CPEC50 PC3. The method, boiled down: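 PC-3 cells, 1000 cells/well, left to adhere 3-5 h, then exposed for 3 days at 37° C to compounds as 1:3 serial dilutions from 500× DMSO stocks diluted in growth medium. Medium then replaced with fresh medium and viability read by Cell Titer Glo luminescence.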

[3] abbreviates: Homo sapiens, PC-3, Cell Proliferation Assay.

The IC50 is the concentration needed to halve the response being measured. Consider `c1ccc(Nc2ncc3cccc(OC4CCNCC4)c3n2)cc1` [Compound 479, N-phenyl-8-(piperidin-4-yloxy)quinazolin-2-amine], for which the IC50 in test [1] was less than 5 µM. Further, the EC50 in test [2] (setting [3]) is less than 5 µM.

For `Fc1cccc(Nc2ncc3cccc(OC4CCNCC4)c3n2)c1` [Compound 480, N-(3-fluorophenyl)-8-(piperidin-4-yloxy)quinazolin-2-amine], the 50% inhibitory concentration (IC50) in test [1] is less than 5 µM. Besides, the EC50 in test [2] (setting [3]) was less than 5 µM.

For the compound `O=C(O)c1ccc(Nc2ncc3cccc(OC4CCNCC4)c3n2)cc1Cl` [Compound 481, 2-chloro-4-(8-(piperidin-4-yloxy)quinazolin-2-ylamino)benzoic acid], the IC50 in test [1] is less than 5 µM. For the same compound, the EC50 in test [2] (setting [3]) fell in the range of 5 to 10 µM.

On to `CC(C)NC(=O)c1ccc(Nc2ncc3cccc(OC4CCNCC4)c3n2)cc1Cl` [Compound 482, 2-chloro-N-isopropyl-4-(8-(piperidin-4-yloxy)quinazolin-2-ylamino)benzamide], for which the half-inhibitory concentration (IC50) in test [1] was less than 5 µM. The EC50 in test [2] (setting [3]) is less than 5 µM.

As for `O=C(c1ccc(Nc2ncc3cccc(OC4CCNCC4)c3n2)cc1Cl)N1CCOCC1` [Compound 483, (2-chloro-4-(8-(piperidin-4-yloxy)quinazolin-2-ylamino)phenyl)(morpholino)methanone], the IC50 in test [1] was less than 5 µM. The EC50 in test [2] (setting [3]) is less than 5 µM.

`Fc1ccc(Nc2ncc3cccc(OC4CCNCC4)c3n2)cc1Br` [Compound 484, N-(3-bromo-4-fluorophenyl)-8-(piperidin-4-yloxy)quinazolin-2-amine]: in test [1], the IC50 was less than 5 µM. Further, the EC50 in test [2] (setting [3]) is less than 5 µM.

With `O=C(NC1CC1)c1ccc(Nc2ncc3cccc(OC4CCNCC4)c3n2)cc1Cl` [Compound 485, 2-chloro-N-cyclopropyl-4-(8-(piperidin-4-yloxy)quinazolin-2-ylamino)benzamide], in test [1], the half-inhibitory concentration (IC50) was less than 5 µM. Moreover, the EC50 in test [2] (setting [3]) was less than 5 µM.

For the compound `COCCNC(=O)c1ccc(Nc2ncc3cccc(OC4CCNCC4)c3n2)cc1Cl` [Compound 486, 2-chloro-N-(2-methoxyethyl)-4-(8-(piperidin-4-yloxy)quinazolin-2-ylamino)benzamide], the IC50 in test [1] was less than 5 µM. In addition, in test [2] (setting [3]), the EC50 is less than 5 µM.

As to `Fc1ccc(Nc2ncc3cccc(OC4CCNCC4)c3n2)cc1C1=CCNCC1` [Compound 487, N-(4-fluoro-3-(1,2,3,6-tetrahydropyridin-4-yl)phenyl)-8-(piperidin-4-yloxy)quinazolin-2-amine], the IC50 in test [1] is less than 5 µM. For the same compound, in test [2] (setting [3]), the EC50 was less than 5 µM.

For the compound `O=C(O)c1ccc(Nc2ncc3cccc(OC4CCNCC4)c3n2)cc1` [Compound 488, 4-(8-(piperidin-4-yloxy)quinazolin-2-ylamino)benzoic acid], in test [1], the IC50 is less than 5 µM. In addition, in test [2] (setting [3]), the EC50 is less than 5 µM.

Regarding `N#Cc1ccc(Nc2ncc3cccc(OC4CCNCC4)c3n2)cc1` [Compound 489, 4-(8-(piperidin-4-yloxy)quinazolin-2-ylamino)benzonitrile], in test [1], the IC50 was less than 5 µM. The EC50 in test [2] (setting [3]) is less than 5 µM.

For the compound `O=C(NC1CC1)c1ccc(Nc2ncc3cccc(OC4CCNCC4)c3n2)cc1` [Compound 490, N-cyclopropyl-4-(8-(piperidin-4-yloxy)quinazolin-2-ylamino)benzamide], the IC50 in test [1] is less than 5 µM. Also, the EC50 in test [2] (setting [3]) was less than 5 µM.

For the compound `CC(C)NC(=O)c1ccc(Nc2ncc3cccc(OC4CCNCC4)c3n2)cc1` [Compound 491, N-isopropyl-4-(8-(piperidin-4-yloxy)quinazolin-2-ylamino)benzamide], in test [1], the IC50 was less than 5 µM. Moreover, the EC50 in test [2] (setting [3]) is less than 5 µM.

Regarding `COCCNC(=O)c1ccc(Nc2ncc3cccc(OC4CCNCC4)c3n2)cc1` [Compound 492], in test [1], the IC50 was less than 5 µM. In test [2] (setting [3]), the EC50 is less than 5 µM.

As for `CS(=O)(=O)CCNC(=O)c1ccc(Nc2ncc3cccc(OC4CCNCC4)c3n2)cc1F` [Compound 493, 2-fluoro-N-(2-(methylsulfonyl)ethyl)-4-(8-(piperidin-4-yloxy)quinazolin-2-ylamino)benzamide], in test [1], the IC50 is less than 5 µM. In addition, the EC50 in test [2] (setting [3]) is less than 5 µM.

For `O=C1CN(C(=O)c2ccc(Nc3ncc4cccc(OC5CCNCC5)c4n3)cc2F)CCN1` [Compound 494, 4-(2-fluoro-4-(8-(piperidin-4-yloxy)quinazolin-2-ylamino)benzoyl)piperazin-2-one], the IC50 in test [1] was less than 5 µM. Besides, the EC50 in test [2] (setting [3]) lay in the range of 5 to 10 µM.

Take `O=C(NC1CCCC1)c1ccc(Nc2ncc3cccc(OC4CCNCC4)c3n2)cc1F` [Compound 495, N-cyclopentyl-2-fluoro-4-(8-(piperidin-4-yloxy)quinazolin-2-ylamino)benzamide]: the IC50 in test [1] was less than 5 µM. In addition, the EC50 in test [2] (setting [3]) was less than 5 µM.

For `CC(=O)NCCNC(=O)c1ccc(Nc2ncc3cccc(OC4CCNCC4)c3n2)cc1F` [Compound 496, N-(2-acetamidoethyl)-2-fluoro-4-(8-(piperidin-4-yloxy)quinazolin-2-ylamino)benzamide], the IC50 in test [1] is less than 5 µM. In addition, in test [2] (setting [3]), the EC50 is 5 to 10 µM.

`O=C(NCCN1CCCC1)c1ccc(Nc2ncc3cccc(OC4CCNCC4)c3n2)cc1F` [Compound 497, 2-fluoro-4-(8-(piperidin-4-yloxy)quinazolin-2-ylamino)-N-(2-(pyrrolidin-1-yl)ethyl)benzamide]: in test [1], the IC50 was less than 5 µM. For the same compound, the EC50 in test [2] (setting [3]) is less than 5 µM.

As to `O=C(c1ccc(Nc2ncc3c(C(F)(F)F)ccc(OC4CCNCC4)c3n2)cc1)N1CCOCC1` [Compound 501, morpholino(4-(8-(piperidin-4-yloxy)-5-(trifluoromethyl)quinazolin-2-ylamino)phenyl)methanone], in test [1], the IC50 is less than 5 µM. In addition, in test [2] (setting [3]), the EC50 lay in the range of 5 to 10 µM.

For the compound `FC(F)(F)c1ccc(OC2CCNCC2)c2nc(Nc3ccc(N4CCOCC4)cc3)ncc12` [Compound 502, N-(4-morpholinophenyl)-8-(piperidin-4-yloxy)-5-(trifluoromethyl)quinazolin-2-amine], the IC50 in test [1] is less than 5 µM. The EC50 in test [2] (Cell Proliferation Assay) was less than 5 µM.

As for `COc1c(NC2CCN(C)CC2)cc(Cl)c2cnc(Nc3ccc(C(=O)N4CCOCC4)cc3)nc12` [Compound 503, (4-(5-chloro-8-methoxy-7-(1-methylpiperidin-4-ylamino)quinazolin-2-ylamino)phenyl)(morpholino)methanone], in test [1], the IC50 is less than 5 µM. In addition, in test [2] (setting [3]), the EC50 was in the range of 5 to 10 µM.

On to `CC(C)N1CCC(Oc2cccc3cnc(N)nc23)CC1` [Compound 523, 8-(1-isopropylpiperidin-4-yloxy)quinazolin-2-amine], for which, in test [1], the IC50 lay within 5 to 10 µM. Also, the EC50 in test [2] (setting [3]) lay in the range of 5 to 10 µM.

Consider `Nc1ncc2cccc(O)c2n1` [Compound 524, 2-aminoquinazolin-8-ol], for which the half-inhibitory concentration (IC50) in test [1] was 10 to 25 µM. For the same compound, the EC50 in test [2] (setting [3]) is less than 5 µM.

In the case of `CC(C)N1CCC(Oc2cccc3cnc(Nc4cccc(NC(=O)N5CCCC5)c4)nc23)CC1` [Compound 525, N-(3-(8-(1-isopropylpiperidin-4-yloxy)quinazolin-2-ylamino)phenyl)pyrrolidine-1-carboxamide], the IC50 in test [1] is less than 5 µM. The EC50 in test [2] (setting [3]) is less than 5 µM.

In the case of `COc1cc(Nc2ncc3cccc(OC4CCN(C(C)C)CC4)c3n2)cc(OC)c1` [Compound 526, N-(3,5-dimethoxyphenyl)-8-(1-isopropylpiperidin-4-yloxy)quinazolin-2-amine], the IC50 in test [1] was less than 5 µM. The EC50 in test [2] (setting [3]) was 5 to 10 µM.

Take `CC(C)N1CCC(Oc2cccc3cnc(Nc4cccc(F)c4)nc23)CC1` [Compound 527, N-(3-fluorophenyl)-8-(1-isopropylpiperidin-4-yloxy)quinazolin-2-amine]: the IC50 in test [1] is less than 5 µM. Besides, the EC50 in test [2] (setting [3]) was less than 5 µM.

As for `CC(C)N1CCC(Oc2cccc3cnc(Nc4cccc(Cl)c4)nc23)CC1` [Compound 528, N-(3-chlorophenyl)-8-(1-isopropylpiperidin-4-yloxy)quinazolin-2-amine], in test [1], the IC50 was less than 5 µM. In test [2] (setting [3]), the EC50 is less than 5 µM.

For the compound `CC(C)N1CCC(Oc2cccc3cnc(Nc4cccc(C(F)(F)F)c4)nc23)CC1` [Compound 529, 8-(1-isopropylpiperidin-4-yloxy)-N-(3-(trifluoromethyl)phenyl)quinazolin-2-amine], the IC50 in test [1] was less than 5 µM. In test [2] (setting [3]), the EC50 is less than 5 µM.

As for `CC(C)N1CCC(Oc2cccc3cnc(Nc4cccc(C#N)c4)nc23)CC1` [Compound 530, 3-(8-(1-isopropylpiperidin-4-yloxy)quinazolin-2-ylamino)benzonitrile], in test [1], the IC50 was less than 5 µM. In addition, the EC50 in test [2] (setting [3]) is less than 5 µM.

With `COc1cccc(Nc2ncc3cccc(OC4CCN(C(C)C)CC4)c3n2)c1` [Compound 531, 8-(1-isopropylpiperidin-4-yloxy)-N-(3-methoxyphenyl)quinazolin-2-amine], the half-maximal inhibitory concentration (IC50) in test [1] is less than 5 µM. Further, in test [2] (setting [3]), the EC50 fell in the range of 5 to 10 µM.
